Read-outs that look alike come from different tables or passages of the source.
Test system: PGC-1α
Test: Single point PGC-1α assay (in-cell ELISA in differentiated C2C12 myotubes)
Type: cell-based
Settings: Mus musculus, each compound tested at 0.01 nM, DMSO control as 100 %
Description: Culture conditions: DMEM containing 25 mM glucose with 10 % FBS supplementation; grown at 37° C. and 5 % CO2.
Assay Conditions: C2C12 cells were cultured in DMEM supplemented in 10 % FBS up to 80 % confluence. The cells were further trypsinized and seeded into a 96 well plate at a density of 5000 cells/well (well volume – 100 µL) (Day 0). Following attachment, the cells were allowed to reach 80-90% confluence in the plate (typically 48 hours post seeding) and further differentiated using DMEM + 2 % Horse Serum (200 µL/well). The media was changed every day or at least every alternate day for 5 days to allow myoblasts to differentiate into myotubes. On day 7 (post seeding), the cells were treated with standards and test compounds for PGC-1α assay.
PGC-1α assay: For the detection of PGC-1α, the cells were incubated with 0.5 µg/ml primary antibody (Merck, WH0010891M3) in PBS-T containing 5 % BSA at 4° C. overnight. The cells were then washed three times with PBS-T for 5 minutes and incubated with 1:1000 dilution secondary antibody (Anti- rabbit IgG, HRP-linked Antibody, Cell Signaling) in PBS-T with 1 % BSA for 1 hour at RT. Cells were washed three times with PBS-T for 5 minutes The cells were incubated with 100 µl TMB substrate solution for 30 minutes and the reaction was stopped with 100 µl of 2N H2SO4. Then the plate was read at 450 nm using ELISA plate reader and absorbance recorded. % activity was calculated using DMSO control as 100 %. (For plate optical density calculations, a background correction was taken at 540 nm). Each compound was tested at a concentration of 0.01 nM.

[1] = average, count 1, read-out: Single point PGC1-Alpha Assay: Average Activity (%)
[2] = read-out: Single point PGC1-Alpha Assay: Activity (%)

Structure (SMILES)	activity at 10 pM [1] [%]	activity at 10 pM [2] [%]
Cc1cc(O)cc(C2Oc3cc(O)cc(O)c3CC2O)c1 (stereo not drawn)	109	109
Cc1cc(O)cc([C@H]2Oc3cc(O)cc(O)c3C[C@H]2O)c1	103	103
Cc1cc(O)cc([C@@H]2Oc3cc(O)cc(O)c3C[C@@H]2O)c1	114	114
Oc1cc(O)c2c(c1)O[C@@H](c1ccc(F)c(O)c1)[C@@H](O)C2	104	104
COc1cc([C@@H]2Oc3cc(O)cc(O)c3C[C@@H]2O)ccc1O	124	124
Oc1cc(F)cc([C@@H]2Oc3cc(O)cc(O)c3C[C@@H]2O)c1	117	117

Source: patent publication US20230192638A1, “POLYPHENOLS DERIVATIVES” (Epirium Bio Inc., priority 2021, published 2023)
